From patent publication US20090041888A1, “USE OF FORMULATED DIETS PROVIDING IMPROVED DIGESTION IN FISH” (SOUTHERN ILLINOIS UNIVERSITY, priority 2005, published 2009) come the findings set out here.

The subject of experiment [1] is hybrid striped bass (Morone chrysops X M. saxatilis). Nature of the experiment: Growth and feed efficiency trial of practical diets supplemented with a non-nutritive emulsifier. It is filed as in vivo. The settings on record: for FCR (feed conversion ratio) / Weight Gain (%): 28 days, initial weight 15 g; for Weight Gain (%): fed daily to satiation. The text has this:
The present example provides details of experiments conducted to evaluate and quantify the effects of a non-nutritive emulsifier upon the growth and feed efficiency of phase-I hybrid striped bass (Morone chrysops×M. saxatilis). Tween-80® (provided as a liquid supplement) was incorporated into practical diets formulated to meet, or exceed, the known nutrient requirements of hybrid striped bass. Diets were formulated at Southern Illinois University using MIXIT 3 WIN (Agricultural Software Consultants, Inc., San Diego) and manufactured as cold pressed pellets.
Fish were stocked at a density of 15 fish per tank. Four practical diets were formulated to meet or exceed the known dietary requirements of juvenile hybrid striped bass. Each diet was supplemented with one of four concentrations of emulsifier providing dietary treatments of 0, 0.5, 1.0, and 2.0% Tween-80®, respectively. Fish were fed daily to satiation and feed consumption was monitored weekly. After 4 weeks, all fish in each tank were weighed to determine growth. Feed consumption was used to calculate feed conversion ratio (g feed:g weight gain).

Experiment [2] has as its system juvenile sunshine bass Morone chrysops×M. saxatilis. Nature of the experiment: Gastric residuum stratification trial with pelleted diets with varied levels of lecithin inclusion. It is filed as in vivo. To be noted: 2% BWD meal, 4.5 h post-prandial. The source says: Residuum appearance: Nine pellet trained sub-adult spotted bass (mean weight=150 grams) were maintained in isolation in 37.8 L glass aquariums for seven days. During days 1-5, the bass were hand-fed to satiation once daily with either a semi-purified pellet diet (See Table 2), live paper shell crayfish (Orconectes immunis), or live fathead minnows (Pimephales promelas). Three bass were given each dietary treatment. Crayfish and minnows were maintained on the same pelleted diet as the bass and fed to apparent satiation two times daily. On Day 6, food was withheld to allow complete evacuation of gastric contents. On Day 7, the bass were fed that same food as during Days 1-5, at a rate of approximately 2% of their body weight (dry weight of feed/wet weight of bass). Post-prandially (4.5 hours) the bass were dispatched with blunt trauma to the head before immersion in liquid nitrogen until frozen solid (approx. 2 mins.). The bass were stored frozen until the residuum was removed by dissection. The position of the pyloric sphincter was noted relative to the observed strata. Representative residua were photographed. Residuum strata were separated using a razor blade for determination of proximate composition.
Juvenile sunshine bass Morone chrysops×M. saxatilis (n=15) were stocked individually into 110 L tanks and acclimated for a period of five days. […]

Setting [3] is: juvenile hybrid striped bass, practical diets.

`CCCCCCCC/C=C\CCCCCCCC(=O)OCCOCC(OCCO)C1OCC(OCCO)C1OCCO` (stereo not shown) [Tween-80]: in experiment [1] (0.5% Tween-80 in diet), the “FCR (feed conversion ratio)” value was 1.21 g feed:g gain and the “Weight Gain (%)” value is recorded as 118%. Further, in experiment [1] (1.0% Tween-80 in diet), the “FCR (feed conversion ratio)” value is 1.16 g feed:g gain and the “Weight Gain (%)” value was 140%. For the same compound, in experiment [1] (2.0% Tween-80 in diet), the “FCR (feed conversion ratio)” value is 1.23 g feed:g gain and the “Weight Gain (%)” value turned out to be 125%. Moreover, in experiment [1] (setting [3]), the “feed conversion compared to fish fed a control diet void of Tween-80” value is on record as “improved” and the “weight gain compared to fish fed a control diet void of Tween-80” value is “improved”.
Consider lecithin (phosphatidyl choline), for which, in experiment [2] (lecithin inclusion rates of 0.25, 0.50, 1.00 and 2.00% of pellet weight), the “stratification of the gastric residuum” value is “reduce stratification of the gastric residuum”. For the same compound, the “amount of post-prandial water intake into the gastric residuum” value in experiment [2] (lecithin inclusion rates of 0.50, 1.00 and 2.00%) is reported as “reduce the amount of post-prandial water intake”.
